Source: patent publication US11117905B2, “Bisaryl heterocycles as NRF2 activators” (GLAXOSMITHKLINE INTELLECTUAL PROPERTY DEVELOPMENT LIMITED, priority 2016, dated 2021)
Counter-ions that a name gives are not always drawn.

System: NQO1 specific enzyme activity in BEAS-2B cells (marker for NRF2 activation)
Assay: BEAS-2B NQO1 MTT Assay
Assay type: cell-based
Conditions: NQO1 specific activity induction, 48 hours with compound
From the text: NAD(P)H:quinone oxidoreductase 1 (NQO1), also called DT diaphorase, is a homodimeric FAD-containing enzyme that catalyzes obligatory NAD(P)H-dependent two-electron reductions of quinones and protects cells against the toxic and neoplastic effects of free radicals and reactive oxygen species arising from one-electron reductions. The transcription of NQO1 is finely regulated by NRF2, and thus NQO1 activity is a good marker for NRF2 activation. On day one, frozen BEAS-2B cells (ATCC) were thawed in a water bath, counted, and re-suspended at a concentration of 250,000 cells/mL. Fifty microliters of cells were plated in 384 well black clear-bottomed plates. Plates were incubated at 37° C., 5% CO2 overnight. On day two, plates were centrifuged and 50 nL of compound or controls were added to the cells. Plates were then incubated at 37° C., 5% CO2 for 48 hours. On day four, medium was aspirated from the plate and crude cell lysates were made by adding 13 uL of 1× Cell Signaling Technologies lysis buffer with 1 Complete, Mini, EDTA-free Protease Inhibitor Tablet (Roche) for each 10 mL of lysis buffer. After lysis plates were incubated for 20 minutes at room temperature. Two microliters of lysate were removed for use in Cell Titer Glo assay (Promega) and MTT cocktail was prepared (Prochaska et. al. 1998) for measurement of NQO1 activity. Fifty microliters of MTT cocktail is added to each well, plate is centrifuged, and analyzed on an Envision plate reader (Perkin Elmer) using Absorbance 570 nm label for 30 minutes. Product formation was measured kinetically and the pEC50 of NQO1 specific activity induction was calculated by plotting the change in absorbance (Delta OD/min) versus the log of compound concentration followed by 3-parameter fitting.
pEC50 is the negative log of the EC50.
EC50s<1 nM (+++++), EC50s 1 nM-10 nM (++++), EC50s 10 nM-100 nM (+++), EC50s 100 nM-1 uM (++), EC50s 1 uM-10 uM (+), EC50s>10 uM (−), or were not determined (ND).

Row | SMILES | EC50 (Homo sapiens, BEAS-2B, 48 h) | EC50
1 | CCn1cc(CC[C@H](c2cc(CN3C[C@@H](C)Cc4ncccc4S3(=O)=O)c(C)s2)C(C)(C)C(=O)O)nn1 [Example 62, (S)-5-(1-Ethyl-1H-1,2,3-triazol-4-yl)-2,2-dimethyl-3-(5-methyl-4-(((S)-4-methyl-1,1-dioxido-4,5-dihydropyrido[2,3-f][1,2]thiazepin-2(3H)-yl)methyl)thiophen-2-yl)pentanoic Acid] | 1 to 10 nM | –
2 | CCn1nnc2c(C)c([C@H](c3cc(CN4C[C@H](C)Cc5ccccc5S4(=O)=O)c(C)s3)C(C)(C)C(=O)O)ccc21 [Example 17, (S)-3-(1-Ethyl-4-methyl-1H-benzo[d][1,2,3]triazol-5-yl)-2,2-dimethyl-3-(5-methyl-4-(((R)-4-methyl-1,1-dioxido-4,5-dihydrobenzo[f][1,2]thiazepin-2(3H)-yl)methyl)thiophen-2-yl)propanoic Acid] | 1 to 10 nM | –
3 | CC[C@@H]1CN(Cc2nc([C@@H](c3ccc4c(nnn4CC)c3C)C(C)(C)C(=O)O)sc2C)S(=O)(=O)c2ncccc2O1 [Example 29, (S)-3-(4-(((R)-4-Ethyl-1,1-dioxido-3,4-dihydro-2H-pyrido[3,2-b][1,4,5]oxathiazepin-2-yl)methyl)-5-methylthiazol-2-yl)-3-(1-ethyl-4-methyl-1H-benzo[d][1,2,3]triazol-5-yl)-2,2-dimethylpropanoic Acid] | 1 to 10 nM | –
4 | CCn1nnc2c(C)c([C@H](c3cc(CN4C[C@@H](C)Cc5ccccc5S4(=O)=O)c(C)s3)C(C)(C)C(=O)Nc3cccnc3)ccc21 [Example 52, (S)-3-(1-Ethyl-4-methyl-1H-benzo[d][1,2,3]triazol-5-yl)-2,2-dimethyl-3-(5-methyl-4-(((S)-4-methyl-1,1-dioxido-4,5-dihydrobenzo[f][1,2]thiazepin-2(3H)-yl)methyl)thiophen-2-yl)-N-(pyridin-3-yl)propanamide] | 1 to 10 nM | –
5 | CCn1nnc2c(C)c([C@H](c3cc(CN4CCC[C@H](n5cccn5)C4)c(C)s3)C(C)(C)C(=O)O)ccc21 [Example 32, (S)-3-(4-(((S)-3-(1H-Pyrazol-1-yl)piperidin-1-yl)methyl)-5-methylthiophen-2-yl)-3-(1-ethyl-4-methyl-1H-benzo[d][1,2,3]triazol-5-yl)-2,2-dimethylpropanoic acid] | 100 to 1000 nM | –
6 | CC[C@@H]1CN(Cc2cc([C@@H](c3ccc4c(nnn4CC)c3C)C(C)(C)C(=O)O)sc2C)S(=O)(=O)c2cccnc2O1 [Example 7, (S)-3-(4-(((R)-4-Ethyl-1,1-dioxido-3,4-dihydro-2H-pyrido[2,3-b][1,4,5]oxathiazepin-2-yl)methyl)-5-methylthiophen-2-yl)-3-(1-ethyl-4-methyl-1H-benzo[d][1,2,3]triazol-5-yl)-2,2-dimethylpropanoic acid] | < 1 nM | –
7 | CCn1nnc2c(C)c([C@H](c3cc(CN4C[C@@H](C)Cc5ccccc5S4(=O)=O)c(C)s3)C(C)(C)C(N)=O)ccc21 [Example 39, (S)-3-(1-Ethyl-4-methyl-1H-benzo[d][1,2,3]triazol-5-yl)-2,2-dimethyl-3-(5-methyl-4-(((S)-4-methyl-1,1-dioxido-4,5-dihydrobenzo[f][1,2]thiazepin-2(3H)-yl)methyl)thiophen-2-yl)propanamide] | 10 to 100 nM | –
8 | CC[C@@H]1CN(Cc2cc([C@@H](c3ccc4c(nnn4CC)c3C)C(C)(C)C(=O)O)sc2C)S(=O)(=O)c2ccccc2O1 [Example 10, (S)-3-(4-(((R)-4-Ethyl-1,1-dioxido-3,4-dihydro-2H-benzo[b][1,4,5]oxathiazepin-2-yl)methyl)-5-methylthiophen-2-yl)-3-(1-ethyl-4-methyl-1H-benzo[d][1,2,3]triazol-5-yl)-2,2-dimethylpropanoic Acid] | < 1 nM | –
9 | CC[C@@H]1CN(Cc2nc(C(c3ccc4c(nnn4CC)c3C)C(C)(C)C(=O)O)sc2C)S(=O)(=O)c2ccccc2O1 (single isomer, unassigned; isomer 2) [Example 14, (R or S)-3-(4-(((R)-4-Ethyl-1,1-dioxido-3,4-dihydro-2H-benzo[b][1,4,5]oxathiazepin-2-yl)methyl)-5-methylthiazol-2-yl)-3-(1-ethyl-4-methyl-1H-benzo[d][1,2,3]triazol-5-yl)-2,2-dimethylpropanoic Acid Isomer 2] | – | 10 to 100 nM
10 | CC[C@H]1Cc2ccccc2S(=O)(=O)N(Cc2nc([C@@H](c3ccc4c(nnn4CC)c3C)C(C)(C)C(=O)O)sc2C)C1 [Example 41, (S)-3-(4-(((S)-4-Ethyl-1,1-dioxido-4,5-dihydrobenzo[f][1,2]thiazepin-2(3H)-yl)methyl)-5-methylthiazol-2-yl)-3-(1-ethyl-4-methyl-1H-benzo[d][1,2,3]triazol-5-yl)-2,2-dimethylpropanoic Acid] | < 1 nM | –
11 | CC[C@@H]1CN(Cc2cc([C@@H](c3ccc4c(nnn4CC)c3C)C(C)(C)C(=O)O)sc2C)S(=O)(=O)c2cnccc2O1 [Example 9, (S)-3-(4-(((R)-4-Ethyl-1,1-dioxido-3,4-dihydro-2H-pyrido[4,3-b][1,4,5]oxathiazepin-2-yl)methyl)-5-methylthiophen-2-yl)-3-(1-ethyl-4-methyl-1H-benzo[d][1,2,3]triazol-5-yl)-2,2-dimethylpropanoic Acid] | < 1 nM | –
12 | CCn1cc(CC[C@@H](c2cc(CN3C[C@@H](C)Cc4ncccc4S3(=O)=O)c(C)s2)C(C)(C)C(=O)O)nn1 [Example 61, (R)-5-(1-Ethyl-1H-1,2,3-triazol-4-yl)-2,2-dimethyl-3-(5-methyl-4-(((S)-4-methyl-1,1-dioxido-4,5-dihydropyrido[2,3-f][1,2]thiazepin-2(3H)-yl)methyl)thiophen-2-yl)pentanoic Acid] | 1 to 10 nM | –
13 | CC[C@@H]1CN(Cc2cc([C@@H](CCc3cn(CC)nn3)C(C)(C)C(=O)O)sc2C)S(=O)(=O)c2cccnc2O1 [Example 59, (S)-3-(4-(((R)-4-Ethyl-1,1-dioxido-3,4-dihydro-2H-pyrido[2,3-b][1,4,5]oxathiazepin-2-yl)methyl)-5-methylthiophen-2-yl)-5-(1-ethyl-1H-1,2,3-triazol-4-yl)-2,2-dimethylpentanoic Acid] | 1 to 10 nM | –
14 | CCn1nnc2c(C)c([C@H](c3cc(CN4C[C@@H](C)Cc5ncccc5S4(=O)=O)n(C)n3)C(C)(C)C(=O)O)ccc21 [Example 31, (S)-3-(1-Ethyl-4-methyl-1H-benzo[d][1,2,3]triazol-5-yl)-2,2-dimethyl-3-(1-methyl-5-(((S)-4-methyl-1,1-dioxido-4,5-dihydropyrido[2,3-f][1,2]thiazepin-2(3H)-yl)methyl)-1H-pyrazol-3-yl)propanoic Acid] | 100 to 1000 nM | –
15 | CC[C@H]1Cc2ncccc2S(=O)(=O)N(Cc2nc([C@@H](c3ccc4c(nnn4CC)c3C)C(C)(C)C(=O)O)sc2C)C1 [Example 33, (S)-3-(4-(((S)-4-Ethyl-1,1-dioxido-4,5-dihydropyrido[2,3-f][1,2]thiazepin-2(3H)-yl)methyl)-5-methylthiazol-2-yl)-3-(1-ethyl-4-methyl-1H-benzo[d][1,2,3]triazol-5-yl)-2,2-dimethylpropanoic Acid] | < 1 nM | –
16 | CCn1nnc2c(C)c([C@H](c3nc(CN4C[C@@H](C)Cc5cc(C(F)(F)F)ccc5S4(=O)=O)c(C)s3)C(C)(C)C(=O)O)ccc21 [Example 44, (S)-3-(1-Ethyl-4-methyl-1H-benzo[d][1,2,3]triazol-5-yl)-2,2-dimethyl-3-(5-methyl-4-(((S)-4-methyl-1,1-dioxido-7-(trifluoromethyl)-4,5-dihydrobenzo[f][1,2]thiazepin-2(3H)-yl)methyl)thiazol-2-yl)propanoic Acid] | < 1 nM | –
17 | CC[C@@H]1CN(Cc2cc([C@H](c3ccc4c(nnn4CC)c3C)C(C)(C)C(=O)O)sc2C)S(=O)(=O)c2ccccc2O1 [Example 11, (R)-3-(4-(((R)-4-Ethyl-1,1-dioxido-3,4-dihydro-2H-benzo[b][1,4,5]oxathiazepin-2-yl)methyl)-5-methylthiophen-2-yl)-3-(1-ethyl-4-methyl-1H-benzo[d][1,2,3]triazol-5-yl)-2,2-dimethylpropanoic Acid] | 10 to 100 nM | –
18 | CC[C@@H]1CN(Cc2cc([C@@H](c3ccc4c(nnn4CC)c3C)C(C)(C)C(=O)O)sc2C)Cc2ncccc2O1 [Example 60, (S)-3-(4-(((R)-2-Ethyl-2,3-dihydropyrido[2,3-f][1,4]oxazepin-4(5H)-yl)methyl)-5-methylthiophen-2-yl)-3-(1-ethyl-4-methyl-1H-benzo[d][1,2,3]triazol-5-yl)-2,2-dimethylpropanoic Acid] | 1 to 10 nM | –
19 | CC[C@@H]1CN(Cc2cc([C@@H](c3ccc4c(nnn4CC)c3C)C(C)(C)C(=O)Nc3nnn[nH]3)sc2C)S(=O)(=O)c2ccccc2O1 [Example 65, (S)-3-(4-(((R)-4-Ethyl-1,1-dioxido-3,4-dihydro-2H-benzo[b][1,4,5]oxathiazepin-2-yl)methyl)-5-methylthiophen-2-yl)-3-(1-ethyl-4-methyl-1H-benzo[d][1,2,3]triazol-5-yl)-2,2-dimethyl-N-(1H-tetrazol-5-yl)propanamide, 0.10Formic Acid Salt] | 10 to 100 nM | –
